{"source": "ChEMBL document CHEMBL4699577", "about": "“Highly Oxygenated Caryophyllene-Type Sesquiterpenes from a Plant-Associated Fungus, Pestalotiopsis hainanensis, and Their Biosynthetic Gene Cluster” (J Nat Prod, 2020)", "key": {"HL-60": {"tested_on": "HL-60", "assay": "Growth inhibition of human HL-60 cells after 96 hrs by MTT assay", "format": "functional, cell-based", "conditions": "HL-60, 96 h"}, "THP-1": {"tested_on": "THP-1", "assay": "Growth inhibition of human THP-1 cells after 96 hrs by MTT assay", "format": "functional, cell-based", "conditions": "THP-1, 96 h"}}, "data": [{"smiles": "CO[C@@H]1[C@H]2[C@H](O)O[C@@]3([C@@H](OC(C)=O)C/C(C)=C/[C@H]1OC)[C@@H]2CC3(C)C", "values": [{"measurement": "IC50", "setting": "HL-60", "result": 6.2, "unit": "µM"}, {"measurement": "IC50", "setting": "THP-1", "result": 2, "unit": "µM"}]}]}
